Laboratory results published in patent EP4741383A1, “COMPOUND AND USE THEREOF AS ANTI-CANCER DRUG” (Tyligand Bioscience (Shanghai) Limited, priority 2023, dated 2025).

The compounds below were run against T1, CYP2C8 (Homo sapiens, UniProt P10632) (assay: CYP450 inhibition in human liver microsomes, CYP2C8). Details: pH 7.4, read-out: % CYP inhibition @ 10 µM 2C8.
T1 construct: tissue Corning or Xenotech; host or cells: human liver microsomes
T1 sequence (P10632 1-490): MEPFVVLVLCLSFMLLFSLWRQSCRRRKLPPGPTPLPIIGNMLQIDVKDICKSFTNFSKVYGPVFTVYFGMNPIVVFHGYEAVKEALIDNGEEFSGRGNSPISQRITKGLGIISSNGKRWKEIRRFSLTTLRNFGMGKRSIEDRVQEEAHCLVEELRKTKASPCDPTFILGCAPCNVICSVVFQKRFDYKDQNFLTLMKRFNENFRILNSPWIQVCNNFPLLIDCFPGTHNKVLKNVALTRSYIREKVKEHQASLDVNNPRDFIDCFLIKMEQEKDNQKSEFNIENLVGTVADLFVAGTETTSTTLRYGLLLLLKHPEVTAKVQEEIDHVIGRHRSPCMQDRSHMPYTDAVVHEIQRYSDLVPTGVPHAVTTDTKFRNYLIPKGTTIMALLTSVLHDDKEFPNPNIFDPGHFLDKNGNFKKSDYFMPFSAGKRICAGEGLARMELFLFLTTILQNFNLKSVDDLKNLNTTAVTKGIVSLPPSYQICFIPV
Type: in vitro ADME
Description: According to standard methods in the field for the study of cytochrome P450 enzyme systems, such as the method described in Kerns, Edward H. and Di Li et al., Drug-like Properties: Concepts, Structure Design and Methods: from ADME to Toxicity Optimization (2008), San Diego, Academic Press, and Lin, Tong et al., In Vitro Assessment of Cytochrome P450 Inhibition: Strategies for Increasing LC/MS-Based Assay Throughput Using a One-Point IC50 Method and Multiplexing High-Performance Liquid Chromatography (J. Pharm. Sci. 2007, 96 (9), 2485). The inhibitory effect of the disclosed compounds on the cytochrome P450 enzyme system was similarly examined below.
Human liver microsomes were purchased from Corning or Xenotech. The test compounds were evaluated by detecting the metabolism of substrates for different Cyp450 isoforms by human liver microsomes.
0.1 M potassium phosphate buffer (K-buffer, pH 7.4) was pre-warmed.
100 mM K-buffer was prepared by mixing 9.5 mL of stock solution A (1 M potassium dihydrogen phosphate, prepared by dissolving 136.5 g of potassium dihydrogen phosphate in 1 L of Milli-Q water) with 40.5 mL of stock solution B (1 M potassium hydrogen phosphate, prepared by dissolving 174.2 g of potassium hydrogen phosphate in 1 L of Milli-Q water). The total volume was adjusted to 500 mL with Milli-Q water, and the buffer was titrated to pH 7.4 using KOH or H3PO4.
Test compound solution and specific inhibitor solution (400× dilution) were prepared in a 96-well plate. For the test compound, 8 µL of 10 mM test compound was transferred into 12 µL of ACN. For specific inhibitors of CYP1A2, CYP2C9, and CYP2D6: 12 µL of 1 mM α-naphthoflavone, 10 µL of 40 mM sulfaphenazole, 10 µL of 10 mM quinidine, and 8 µL of DMSO were mixed. For specific inhibitors of CYP3A4, CYP2B6, CYP2C8, and CYP2C19: 8 µL of DMSO stock solution was added to 12 µL of ACN.
A 4× diluted NADPH solution was prepared by dissolving 66.7 mg of NADPH in 10 mL of 0.1 M K-buffer (pH 7.4). […]

inhibition at 10 min, 10 µM [%]	Structure (SMILES)
43.8	O=C(Nc1ccc(-c2cc3cc(F)c(-c4nnn[nH]4)cc3n2C2CCC2)cc1)C(=O)Nc1ccc(N2CCC(CO)CC2)cc1 [Example 23]
39.2	O=C(Nc1ccc(-c2cc3cc(F)c(-c4nnn[nH]4)cc3n2C2CCC2)cc1)C(=O)Nc1ccc(N2CCC3(CCOC3)CC2)cc1 [Example 67]
42.1	CC1(n2c(-c3ccc(NC(=O)C(=O)Nc4ccc(N5CCC6(CCOC6)CC5)cc4)cc3)cc3cc(F)c(-c4nnn[nH]4)cc32)CCC1 [Example 68]
